In the experiment the target is T1, CXCR4 (Homo sapiens, UniProt P61073).
T1 construct: purchased Promega (in-house HiBiT-GPCR construct library, NanoBRET)
In words: NanoBRET screen HiBiT-CXCR4 in HEK293. The class given is binding. The method, then:
Each tracer candidate was screened across the entire library of HiBiT-GPCR constructs using NanoBRET as the detection modality. As depicted in Figure 4A, the specificity of interactions was evaluated through decrease in BRET due to competitive displacement of a bound tracer by excess parental compound. Each tracer was analyzed for binding to each HiBiT-GPCR fusion in the absence and in the presence of competing parental compound. Briefly, HEK293 cells were transfected with HiBiT-GPCR constructs diluted into promoterless DNA to reduce expression and maximize translocation to the cell surface. Each tracer candidate was then screened at concentrations of 1 μM and 0.1 μM across cells expressing these fusions. Cells were treated for 1.5 h with tracer either alone or in the presence of 20 μM competing parental compound (i.e., control). BRET was measured upon addition of purified LgBiT and subsequent complementation with HiBiT genetically fused to a GPCR. The specificity of interactions was assessed through a decrease in BRET signal due to competitive displacement of the bound tracer. To further gauge the robustness of these interactions, the fold response over the control (i.e., BRETtracer/BRETcontrol) was calculated. We chose a 1.5-fold response, which translates to ≥7-fold signal over noise as the minimal threshold required to score an interaction as positive. […]. Below we highlight the screening results obtained for our exemplary fluorescent tracers based on Clozapine, Amitriptyline and AZD1283.
HiBiT-GPCR DNA constructs were diluted in 10 mM Tris pH 8 to a final concentration of 0.01 μg/μL, arrayed in 96-well plates and stored at −20 °C. For transfection, HEK293 cells were suspended in Opti-MEM (without phenol red) supplemented with 2% fetal bovine serum (Seradigm) and 100 units/mL penicillin–streptomycin (Gibco) at a final concentration of 220,000 cells/mL and dispensed into white 96-well plates at 90 μL/well. Subsequent transfections and screens were carried using an Agilent Bravo Automated Liquid Handling Platform. First, the 96-well HiBiT DNA arrays were diluted 25-fold in Opti-MEM (without serum or phenol red) to a final concentration of 0.0004 μg/μL and 20 μL of the diluted DNAs were transferred into new 96-well plates. Next, promoterless carrier DNA (1 μg/μL) was diluted 25-fold (0.04 μg/μL) and then dispensed into the diluted arrays at 20 μL/well. Following brief mixing, Viafect transfection reagent (Promega) diluted 16-fold into Opti-MEM was dispensed into the plates at 40 μL/well. After mixing by pipetting, plates were incubated for 10 min on the pipetting station deck. The DNA-transfection reagent complexes were then added to plates containing cells. To facilitate the screen, 10 μL of DNA-transfection reagent complexes were added in duplicates to the top 4 and bottom 4 rows, resulting in two identical 48-well arrays per plate. Plates with transfected cells were incubated for 18–20 h at 37 °C/5% CO2. A screen of each tracer across the entire library using two different concentrations requires duplicate plates of transfected cells. Depending on the number of tracers being screened, transfections can be scaled up using the same ratios. The next day, for each tracer, four 20× screening solutions in tracer dilution buffer (Promega) were prepared: two duplicates at final concentration of 20 μM and two duplicates at a final concentration of 2 μM. A competing unmodified compound was added to one of each duplicate at a final concentration of 400 μM. The four resulting solutions were diluted 4-fold in Opti-MEM without serum or phenol red to generate 5× solutions (5 µM and 0.5 µM tracer +/− 100 μM competing compound). To screen the library, a BioTek MultiFlo FX liquid dispenser was used to dispense 22.5 µL of tracer solution to the top 4 rows and 22.5 µL tracer + competing compound solution to the 4 bottom rows. Plates were briefly mixed on an orbital shaker and incubated for 1.5 h at room temperature. […]

T1 sequence (P61073 whole entry): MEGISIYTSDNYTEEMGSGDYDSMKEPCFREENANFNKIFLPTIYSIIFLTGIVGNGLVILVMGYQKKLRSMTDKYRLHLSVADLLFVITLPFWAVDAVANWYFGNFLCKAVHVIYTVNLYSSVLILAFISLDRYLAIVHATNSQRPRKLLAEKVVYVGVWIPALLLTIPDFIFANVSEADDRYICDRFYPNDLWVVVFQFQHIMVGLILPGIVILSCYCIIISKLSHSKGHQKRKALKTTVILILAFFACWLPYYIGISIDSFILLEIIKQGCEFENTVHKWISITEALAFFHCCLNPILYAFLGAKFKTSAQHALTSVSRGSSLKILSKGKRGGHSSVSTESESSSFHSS

As to `COc1ccc2c(n1)c(CCNC(C)=O)cn2CCNC(=O)CCc1ccc2n1[B-](F)(F)[N+]1=C(c3ccc[nH]3)C=CC1=C2` [Azamelatonin-1-NB590], the “NanoBRET Fold Response” value by setting is: (0.1μM tracer) 1.11; (1μM tracer) 0.82.
For `CC(C)N(CC[C@H](c1ccccc1)c1cc(CCNC(=O)c2ccc(CNC(=O)CCc3ccc4n3[B-](F)(F)[N+]3=C(c5ccc[nH]5)C=CC3=C4)cc2)ccc1O)C(C)C` [Tolterodine-BZ-NB590], the “NanoBRET Fold Response” value is, setting by setting: (CXCR4, tracer 0.1μM) 0.94; (CXCR4, tracer 1μM) 1.03.
For `O=C(CCc1ccc2n1[B-](F)(F)[N+]1=C(c3ccc[nH]3)C=CC1=C2)NCCOCCOCCNC(=O)OCCOCCN1CCN(C2=Nc3ccccc3Sc3ccccc32)CC1` [Quetiapine-a-2-NB590] the same measures were 0.98 and 0.97.
For `Cc1cc2c(s1)Nc1ccccc1N=C2N1CCN(CCCNC(=O)CCOCCOCCOCCOCCNC(=O)CCc2ccc3n2[B-](F)(F)[N+]2=C(c4ccc[nH]4)C=CC2=C3)CC1` [Olanzapine-a-2-NB590] the same measures were 1.04 and 1.10.
`O=C(CCc1ccc2n1[B-](F)(F)[N+]1=C(c3ccc[nH]3)C=CC1=C2)NCc1ccc(C(=O)NCCOCCOCCNCC(O)COc2cccc3ccccc23)cc1` (centres unmarked) [Propranolol-3-NB590]: the “NanoBRET Fold Response” value reads like this: (CXCR4, 0.1μM) 1.04; (CXCR4, 1μM) 1.02.
`CN1CCN(C2=Nc3cc(Cl)ccc3N(CC(=O)NCCOCCOCCOCCOCCNC(=O)CCc3ccc4n3[B-](F)(F)[N+]3=C(c5ccc[nH]5)C=CC3=C4)c3ccccc32)CC1` [Clozapine-c-2-NB590]: the “NanoBRET Fold Response” value turned out to be 1.04 (CXCR4, 0.1μM tracer) and 0.97 (CXCR4, 1μM tracer).
`O=C(CCc1ccc2n1[B-](F)(F)[N+]1=C(c3ccc[nH]3)C=CC1=C2)NCc1ccc(C(=O)NCCOCCC(=O)N[C@@H]2CC[C@@]3(O)[C@H]4Cc5ccc(O)c6c5[C@@]3(CCN4CC3CC3)[C@H]2O6)cc1` [Naltrexone-3-NB590]: the “NanoBRET Fold Response” value runs as follows: (CXCR4, tracer 0.1μM) 1.30; (CXCR4, tracer 1μM) 0.84.
`CC(C)N(CC[C@H](c1ccccc1)c1cc(CCNC(=O)CCOCCOCCOCCOCCNC(=O)CCc2ccc3n2[B-](F)(F)[N+]2=C(c4ccc[nH]4)C=CC2=C3)ccc1O)C(C)C` [Tolterodine-2-NB590]: the “NanoBRET Fold Response” value reads like this: (CXCR4, tracer 0.1μM) 0.88; (CXCR4, tracer 1μM) 1.02.
Turning to `Cc1nc2n(c(=O)c1CCN1CCC(c3noc4cc(F)ccc34)CC1)CCCC2OC(=O)NCCOCCOCCOCCOCCNC(=O)CCc1ccc2n1[B-](F)(F)[N+]1=C(c3ccc[nH]3)C=CC1=C2` (centres unmarked) [Risperidone-2-NB590], the “NanoBRET Fold Response” value is, setting by setting: (CXCR4, tracer 0.1μM) 1.05; (CXCR4, tracer 1μM) 1.12.
Consider `O=C(CCOCCOCCOCCOCCNC(=O)CCc1ccc2n1[B-](F)(F)[N+]1=C(c3ccc[nH]3)C=CC1=C2)NCCCN1CCN(C2=Nc3cc(Cl)ccc3Nc3ccccc32)CC1` [Clozapine-a-2-NB590], for which the “NanoBRET Fold Response” value reads like this: (CXCR4, 0.1μM tracer) 1.04; (CXCR4, 1μM tracer) 0.85.
On to `COc1ccc2[nH]c(-c3ccc(CNC(=O)CCOCCOCCOCCOCCNC(=O)CCc4ccc5n4[B-](F)(F)[N+]4=C(c6ccc[nH]6)C=CC4=C5)cc3)c(CCNC(C)=O)c2n1` [AzomelatoninICO9-2-NB590], for which the “NanoBRET Fold Response” value by setting is: (0.1μM tracer) 1.00; (1μM tracer) 0.81.
For `CN1CCN(C2=Nc3cc(Cl)ccc3Nc3ccc(CNC(=O)CCOCCOCCOCCOCCNC(=O)CCc4ccc5n4[B-](F)(F)[N+]4=C(c6ccc[nH]6)C=CC4=C5)cc32)CC1` [Clozapine-b-2-NB590], the “NanoBRET Fold Response” value by setting is: (CXCR4, 0.1μM tracer) 1.03; (CXCR4, 1μM tracer) 1.07.
On to `COc1ccccc1N1CCN(CCCCN2C(=O)c3ccc(CNC(=O)CCOCCNC(=O)c4ccc(CNC(=O)CCc5ccc6n5[B-](F)(F)[N+]5=C(c7ccc[nH]7)C=CC5=C6)cc4)cc3C2=O)CC1` [NAN-190-3-NB590], for which the “NanoBRET Fold Response” value by setting is: (CXCR4, tracer 0.1μM) 1.24; (CXCR4, tracer 1μM) 1.08.
With `N#CN=C(NCCCOc1cccc(CN2CCCCC2)c1)NCCNC(=O)CCOCCOCCOCCOCCNC(=O)CCc1ccc2n1[B-](F)(F)[N+]1=C(c3ccc[nH]3)C=CC1=C2` [Aminopotentidine-2-NB590], the “NanoBRET Fold Response” value is given as 1.08 (CXCR4, tracer 0.1μM) and 0.99 (CXCR4, tracer 1μM).
As for `CN(C)CCC=C1c2ccccc2CCc2ccc(C(=O)NCCNC(=O)CCOCCOCCOCCOCCNC(=O)CCc3ccc4n3[B-](F)(F)[N+]3=C(c5ccc[nH]5)C=CC3=C4)cc21` [Amitriptyline-b-2-NB590], the “NanoBRET Fold Response” value reads like this: (tracer at 0.1μM, listed as amitriptyline-b-2-NB590) 1.12; (tracer at 1μM) 0.70.
Regarding `COc1ccccc1N1CCN(CCCCN2C(=O)c3ccc(CNC(=O)CCOCCOCCOCCOCCNC(=O)CCc4ccc5n4[B-](F)(F)[N+]4=C(c6ccc[nH]6)C=CC4=C5)cc3C2=O)CC1` [NAN-190-2-NB590], the “NanoBRET Fold Response” value runs as follows: (CXCR4, tracer 0.1μM) 1.00; (CXCR4, tracer 1μM) 1.03.
For `O=C(CCOCCOCCOCCOCCNC(=O)CCc1ccc2n1[B-](F)(F)[N+]1=C(c3ccc[nH]3)C=CC1=C2)NCCCN1CCN(C2=Nc3ccccc3Oc3ccc(Cl)cc32)CC1` [Loxapine-a-2-NB590] the same measures were 1.03 and 1.03.
Regarding `CN(CCC=C1c2ccccc2CCc2ccccc21)C(=O)CCOCCOCCOCCOCCNC(=O)CCc1ccc2n1[B-](F)(F)[N+]1=C(c3ccc[nH]3)C=CC1=C2` [Amitriptyline-e-2-NB590], the “NanoBRET Fold Response” value (tracer at 1μM) turned out to be 1.15.
`CCCn1c(=O)c2[nH]c(-c3ccc(OCC(=O)NCCNC(=O)CCOCCNC(=O)c4ccc(CNC(=O)CCc5ccc6n5[B-](F)(F)[N+]5=C(c7ccc[nH]7)C=CC5=C6)cc4)cc3)nc2n(CCC)c1=O` [XAC-3-NB590]: the “NanoBRET Fold Response” value turned out to be 0.90 (CXCR4, tracer 0.1μM) and 0.92 (CXCR4, tracer 1μM).
In the case of `CN(C)CCC=C1c2ccccc2CCc2ccc(C(=O)NCCNC(=O)CCOCCOCCOCCOCCNC(=O)CCc3ccc4n3[B-](F)(F)[N+]3=C(c5ccc[nH]5)C=CC3=C4)cc21` [Amitriptyline-a-2-NB590], the “NanoBRET Fold Response” value is 0.89 (tracer at 0.1μM) and 1.04 (tracer at 1μM).
Consider `CCOC(=O)c1cc(C#N)c(N2CCC(C(=O)NS(=O)(=O)Cc3ccccc3/C=C/C(=O)NCCNC(=O)CCc3ccc4n3[B-](F)(F)[N+]3=C(c5ccc[nH]5)C=CC3=C4)CC2)nc1C` [AZD1283-1-NB590], for which the “NanoBRET Fold Response” value (CXCR4, 0.1μM) is 0.86 and the “NanoBRET Fold Response” value (CXCR4, 1μM) is 1.17.

The values are drawn from PMC8151276, “An Integrated Approach toward NanoBRET Tracers for Analysis of GPCR Ligand Engagement” (Molecules, 2021).
